Results taken from PMC11189555, “Aryl amino acetamides prevent Plasmodium falciparum ring development via targeting the lipid-transfer protein PfSTART1” (Nature Communications, 2024).
“And” between values parts separate entries of the source, which are not always exact repeats. Equal entries are not always repeated. Where two headings read alike, the source gives them in different places.

Tested on: CR-N330K parasites
Experiment: Growth inhibition assay (72 h, LDH activity)
Assay type: cell-based, Plasmodium falciparum
Conditions: for inhibition at up to 5 µM: dilution point 5 of 10, read-out: Growth inhibition assay, NORMALISED
Experimental: Parasite growth assays with inhibitory compounds were performed as per[11] and are fully described in the Supplementary Information.
Molecular biology and transfection of P. falciparum: CRISPR method.
The full 5’ homology region of pfstart1 (either WT, N309K or N330K) was amplified from pPfSTART1-HA-2A-Neo-glmS with the same 5’ BglII primer and a new 3’ primer that replaced with PstI with SpeI and introduced a stop codon. The PCR product was then digested with BglII and SpeI and inserted into similarly digested p1.2 parasite vector2. The p1.2 vector had previously been inserted with a homology region amplified from the 3’ end of the pfstart1 gene (3’HB) to form a second homology block for double recombination. The primers used to amplify 3’HB are listed primers listed in […]
60 μg of p1.2-PfSTART1(WT/N309K/N330K) plasmid was linearised with KasI, precipitated in 3 M sodium acetate and ethanol (70% final concentration) overnight at -20°C. The DNA pellet was washed in cold 70% ethanol and resuspended in cytomix 3.
50 μ M of crRNA ( Table S 2) and 50 μM of tracRNA (Integrated DNA Technologies) were allowed to form a duplex (5 min at 95°C), and Cas9 enzyme (Integrated DNA Technologies) was added, and incubated for 20 min at room temperature 4. This crRNA -tracRNA -Cas9 mix was added to each DNA preparation and transfected to 3D7 ring parasites using the Bio -Rad Gene Pulser at 310 V and 950 μF.
Parasites containing the transfected DNA were selected using 2.5 nM WR99210 (Jacobus). Parasites lines were cloned using limiting dilution. Correct integration was tested by PCR (using primer START_5’UTR.F and START_Int.R1 , Table S 2), and sequencing was done using the primers START_3F and START_Int.R2 (Table S 2).
Growth inhibition assays. Synchronised ring-stage parasites (0.3-0.6% parasitemia, 2% haematocrit) were grown for 72 h in a serial-dilution of the compound under […]
and compound 4. Note that M-833 was first purchased from MolPort (MolPort -002-267-916) then made in-house at WEHI: the differences observed in EC50s across experiments are attributed to the different batches of M -833. For some experiments, 0, 0.25 or 2.5 mM of glucosamine (GlcN) was also added. Experiments were set up in technical duplicates or triplicates. Following a freeze -thaw cycle, lactate dehydrogenase (LDH) activity was assessed as an indicator of parasite growt h 5. 30 μL of parasite culture was incubated for 30 min in the dark with 75 μL Malstat mixture (0.1 M Tris pH 9.0, 20 g/L lactic acid, pH 7.5, 0.2% Triton-X100, 0.5 g/L acetylpyridine adenine dinucleotide (APAD, Sigma), 200 μg/mL nitroblue tetrazolium (NBT; Sigma), 1 μg/mL phenozine ethosulfate (PES; Sigma)). Absorbance was then measured at 650 nm, transformed using the formula below, plotted against the logarithm of the concentrations, and a non-linear regression (log(inhibitor) vs. response, variable slope) was calculated using GraphPad Prism to assess the half-inhibitory […]
Growth inhibition % = (1 − average(sample)− average(uRBC)) ∗ 100 […]
The DMSO samples were also used to assess growth of parasite in the presence of 0.25 and 2.5 mM GlcN (normalised by DMSO in 0 mM GlcN).
Egress, invasion & recovery assay. To measure egress, invasion and follow up recovery in the presence of different compounds, we adapted the method developed in6, using Hyp1-Nluc parasites7. These parasites episomally express the exported PEXEL protein Hyp1 (PF3D7_0113300) tagged with a NanoLuc luciferase (NLuc) and were selected with 2.5 nM WR99210 (Jacobus). Highly synchronised schizonts were obtained using ML10 (LifeArc) and sorbitol synchronisation, and Percoll-purified (the culture was gently layered over 67% Percoll (Cytiva) in RPMI, and centrifuged for 15 min at 1500 g and the schizont layer was collected and washed). In a 96-well plate, […]

## CC(C)(Nc1ccc(Cl)c(S(=O)(=O)N2CCOCC2)c1)C(=O)Nc1ccc(F)c(Cl)c1 [W-991]
2.5 mM GlcN, dilution point 9 of 10 from starting concentration 5 uM
  NORMALISED (growth inhibition, LDH absorbance): 10.3592 and 12.8289
Fig 4C
  fold less susceptible than the 3D7 and CR-WT controls: around 600 fold
  fold sensitised on PfSTART1 knock-down with GlcN: 7.3 fold
Fig 4C, 0 mM GlcN, n = 3, read-out: EC50 W-991 (95% confidence interval)
  EC50: < 700 nM
Plasmodium falciparum, 0 mM GlcN, dilution point 1 of 10, starting concentration 5 uM, read-out: NORMALISED (growth inhibition, LDH absorbance)
  inhibition at 5 µM: 84.5%
Plasmodium falciparum, 0 mM GlcN, starting concentration 5 uM, dilution point 1 of 10, read-out: Growth inhibition assay, NORMALISED
  inhibition: 90.1%
Plasmodium falciparum, 0 mM GlcN, starting concentration 5 uM, dilution point 3 of 10, read-out: Growth inhibition assay, NORMALISED
  inhibition: 50.4%
Plasmodium falciparum, 0 mM GlcN, starting concentration 5 uM, dilution point 4 of 10, read-out: Growth inhibition assay, NORMALISED
  inhibition: 20.2%
Plasmodium falciparum, 0 mM GlcN, starting concentration 5 uM
  inhibition at up to 5 µM: 14.5%
Plasmodium falciparum, 0 mM GlcN, starting concentration 5 uM, dilution point 6 of 10, read-out: Growth inhibition assay, NORMALISED
  inhibition: 9.02%
Plasmodium falciparum, 0 mM GlcN, starting concentration 5 uM, dilution point 7 of 10, read-out: Growth inhibition assay, NORMALISED
  inhibition: 9.74%
Plasmodium falciparum, 0 mM GlcN, starting concentration 5 uM, dilution point 8 of 10, read-out: Growth inhibition assay, NORMALISED
  inhibition: 9.24%
Plasmodium falciparum, 0 mM GlcN, starting concentration 5 uM, dilution point 9 of 10, read-out: Growth inhibition assay, NORMALISED
  inhibition: 12.9%
Plasmodium falciparum, 0 mM GlcN, starting concentration 5 uM, dilution point 10 of 10, read-out: Growth inhibition assay, NORMALISED
  inhibition: 5.95%
Plasmodium falciparum, 0.25 mM GlcN, dilution point 1 of 10, starting concentration 5 uM, read-out: NORMALISED (growth inhibition, LDH absorbance)
  inhibition at 5 µM: 86.4%
Plasmodium falciparum, 0.25 mM GlcN, starting concentration 5 uM, dilution point 1 of 10, read-out: Growth inhibition assay, NORMALISED
  inhibition at 5 µM: 87.6%
Plasmodium falciparum, 0.25 mM GlcN, starting concentration 5 uM, dilution point 2 of 10, read-out: Growth inhibition assay, NORMALISED
  inhibition at 5 µM: 84.3%
Plasmodium falciparum, 0.25 mM GlcN, starting concentration 5 uM, dilution point 3 of 10, read-out: Growth inhibition assay, NORMALISED
  inhibition at 5 µM: 66.9%
Plasmodium falciparum, 0.25 mM GlcN, starting concentration 5 uM, dilution point 4 of 10, read-out: Growth inhibition assay, NORMALISED
  inhibition at 5 µM: 35.9%
Plasmodium falciparum, 0.25 mM GlcN, starting concentration 5 uM, dilution point 6 of 10, read-out: Growth inhibition assay, NORMALISED
  inhibition at 5 µM: 2.77%
Plasmodium falciparum, 0.25 mM GlcN, starting concentration 5 uM, dilution point 7 of 10, read-out: Growth inhibition assay, NORMALISED
  inhibition at 5 µM: 9.45%
Plasmodium falciparum, 0.25 mM GlcN, starting concentration 5 uM, dilution point 8 of 10, read-out: Growth inhibition assay, NORMALISED
  inhibition at 5 µM: 11.2%
Plasmodium falciparum, 0.25 mM GlcN, starting concentration 5 uM, dilution point 9 of 10, read-out: Growth inhibition assay, NORMALISED
  inhibition at 5 µM: 16.2%
Plasmodium falciparum, 0.25 mM GlcN, starting concentration 5 uM, dilution point 10 of 10, read-out: Growth inhibition assay, NORMALISED
  inhibition at 5 µM: 6.13%
Plasmodium falciparum, 2.5 mM GlcN, starting concentration 5 uM, dilution point 1 of 10, read-out: Growth inhibition assay, NORMALISED
  inhibition: 33.9%
Plasmodium falciparum, 2.5 mM GlcN, starting concentration 5 uM, dilution point 2 of 10, read-out: Growth inhibition assay, NORMALISED
  inhibition: 33.5%
Plasmodium falciparum, 2.5 mM GlcN, starting concentration 5 uM, dilution point 3 of 10, read-out: Growth inhibition assay, NORMALISED
  inhibition: 23.8%
Plasmodium falciparum, 2.5 mM GlcN, starting concentration 5 uM, dilution point 4 of 10, read-out: Growth inhibition assay, NORMALISED
  inhibition: 10.8%
Plasmodium falciparum, 2.5 mM GlcN, starting concentration 5 uM
  inhibition at up to 5 µM: -13.2%
Plasmodium falciparum, 2.5 mM GlcN, starting concentration 5 uM, dilution point 6 of 10, read-out: Growth inhibition assay, NORMALISED
  inhibition: -23.5%
Plasmodium falciparum, 2.5 mM GlcN, starting concentration 5 uM, dilution point 7 of 10, read-out: Growth inhibition assay, NORMALISED
  inhibition: -34.6%
Plasmodium falciparum, 2.5 mM GlcN, starting concentration 5 uM, dilution point 8 of 10, read-out: Growth inhibition assay, NORMALISED
  inhibition: -22.6%
Plasmodium falciparum, 2.5 mM GlcN, starting concentration 5 uM, dilution point 9 of 10, read-out: Growth inhibition assay, NORMALISED
  inhibition: -27.3%
Plasmodium falciparum, 2.5 mM GlcN, starting concentration 5 uM, dilution point 10 of 10, read-out: Growth inhibition assay, NORMALISED
  inhibition: -18.7%
Plasmodium falciparum, read-out: EC50 W-991 (95% confidence interval), Fig 4C, 0 mM GlcN, n = 3
  EC50: 623 nM
Plasmodium falciparum, read-out: EC50 W-991 (95% confidence interval), Fig 4C, 0.25 mM GlcN, n = 3
  EC50: 336 nM
Plasmodium falciparum, read-out: EC50 W-991 (95% confidence interval), Fig 4C, 2.5 mM GlcN, n = 3
  EC50: 85.3 nM
read-out: EC50 W-991 (95% confidence interval), Fig 4C, 0 mM GlcN, n = 3
  EC50: 623 nM
